PMC8873473, “Antidiabetic, antioxidant, and anti-obesity effects of phenylthio-ethyl benzoate derivatives, and molecular docking study regarding α-amylase enzyme” (Scientific Reports, 2022)

Assays:
[1] = target: T1, porcine pancreatic lipase enzyme (Sus scrofa, UniProt P00591); assay: Porcine pancreatic lipase inhibition (p-nitrophenyl butyrate hydrolysis); type: biochemical; conditions: read-out: Anti-lipase activity IC50 (converted)
T1 construct: purchased Frutarom (UK)
T1 sequence (P00591 1-450): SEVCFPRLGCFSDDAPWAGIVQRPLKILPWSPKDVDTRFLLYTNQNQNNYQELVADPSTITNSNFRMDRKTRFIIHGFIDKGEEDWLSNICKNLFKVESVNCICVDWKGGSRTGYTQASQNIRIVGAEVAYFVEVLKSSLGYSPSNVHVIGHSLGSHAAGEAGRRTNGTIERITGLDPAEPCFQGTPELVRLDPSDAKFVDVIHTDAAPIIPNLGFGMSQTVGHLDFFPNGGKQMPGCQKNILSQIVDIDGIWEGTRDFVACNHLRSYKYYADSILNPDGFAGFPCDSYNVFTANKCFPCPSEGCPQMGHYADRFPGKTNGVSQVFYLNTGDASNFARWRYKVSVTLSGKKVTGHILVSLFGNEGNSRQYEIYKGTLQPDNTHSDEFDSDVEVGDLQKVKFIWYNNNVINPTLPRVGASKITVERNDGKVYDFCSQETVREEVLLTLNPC
Method: The lipase inhibitory activity was conducted by following the method in the references with minor modifications[19]–[21]. The prepared synthesized compounds solutions (1 mg/ml) were diluted with 10% DMSO to produce five different dilutions (0.2, 0.4, 0.6, 0.8, and 1 mg/ml). […] A Tris–HCl buffer was used to zero UV–Vis spectrophotometer at 405 nm.
The hydrolysis of p-nitrophenyl butyrate to p-nitrophenyl was used to measure the influence of the synthetic acid esters on the porcine pancreatic lipase enzyme.

[2] = DPPH free radical scavenging test; conditions: 517 nm, 30 min incubation
Method: Four synthetic compounds were tested for the efficiency of scavenging free radicals matched with trolox and gallic acid as a basic. From the compounds, 1 mg/ml concentration solutions in methanol were prepared, and the solutions were used to prepare concentrations of 5, 10, 20, 30, 40, and 50 μg/ml. The DPPH reagent (0.002% w/v) was dissolved in methanol before mixed with working concentrations in ratios of 1:1:1 (compound:DPPH:methanol). The methanol solution was adopted as a blank. All the solutions were incubated for 30 min at room temperature in the dark. When the antioxidant compound reacts with DPPH, which can donate hydrogen, it is reduced the color changes from deep violet to light. Absorbance values were estimated by using a UV–Vis spectrophotometer at a wavelength of 517 nm. The DPPH inhibition percentage of all tested compound, trolox and gallic acid, was estimated according to the formula: Inhibitionpercentage=Ab-As/Ab×100%, where Ab is blank absorbance, and AS is sample absorbance. The IC50 values for tested synthetic compounds, trolox and gallic acid were determined from the curves.

α-glucosidase = assay: α-Glucosidase (α-glycosidase) inhibitory activity, PNPG substrate; type: biochemical; conditions: mean ± SD, triplicates
Method: The inhibition of α-glucosidase activity by the synthesized molecules was measured. The α-glucosidase inhibitory activity is expressed as percentages of inhibition, which was calculated using the following formula: Inhibitoryeffect%=Ab-As/Ab∗100% where Ab and As are the absorbance values of the blank (containing PBS, α-glucosidase, and PNPG, the colored substrate of glucosidase) and the tested samples containing PBS, samples, α-glycosidase, and PNPG, respectively. The α-glucosidase activity was measured using 10 and 20 mg/ml of the synthesized molecules. Each concentration was recorded by using […] PNPG. The inhibitory pattern was assessed using a Lineweaver–Burk plot. The constant Ki of enzyme inhibitory effect was determined.

[3] = target: T2, porcine pancreatic amylase (Sus scrofa, UniProt P00690); assay: α-Amylase inhibitory activity; type: biochemical; conditions: mean ± SD, triplicates; read-out: α-Amylase enzyme IC50 (converted)
T2 construct: purchased Frutarom (UK)
T2 sequence (P00690 16-511): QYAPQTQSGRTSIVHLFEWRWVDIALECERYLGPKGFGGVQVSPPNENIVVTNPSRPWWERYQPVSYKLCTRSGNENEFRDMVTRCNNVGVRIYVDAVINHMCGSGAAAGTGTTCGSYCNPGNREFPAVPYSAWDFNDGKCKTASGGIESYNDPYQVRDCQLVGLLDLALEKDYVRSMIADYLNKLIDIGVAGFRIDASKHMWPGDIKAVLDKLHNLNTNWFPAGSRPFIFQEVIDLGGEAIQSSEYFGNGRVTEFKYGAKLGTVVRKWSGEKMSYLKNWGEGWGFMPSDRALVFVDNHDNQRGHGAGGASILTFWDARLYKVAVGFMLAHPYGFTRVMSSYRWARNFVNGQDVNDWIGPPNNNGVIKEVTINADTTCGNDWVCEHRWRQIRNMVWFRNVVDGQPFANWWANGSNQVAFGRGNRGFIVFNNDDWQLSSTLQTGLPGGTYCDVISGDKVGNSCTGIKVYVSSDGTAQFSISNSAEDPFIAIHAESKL
Method: The α-amylase inhibitory evaluation was established following the Wickramaratne et al. procedure[13] with minor changes. Working solutions with concentrations of 10, 50, 100, 500, and 1000 µg/ml were produced from our synthesized compounds, diluting them with a buffer of Na2HPO4/NaH2PO4 (0.02 M), NaCl (0.006 M) at pH 6.9 and then brined up to 10 ml using a 10 ml volumetric flask. […] As percent inhibition, the enzyme inhibitory potential was expressed, and the following equation was utilized to estimate the IC50 dose for the samples[14]. %a-AmylaseInhibiton=Abs100%control-AbsSample/Abs100%Control×100

[4] = β-Carotene linoleic acid antioxidant test; conditions: concentration 0.2 mg/ml; for Absorbance in β-carotene linoleic acid test: after 75 min, 470 nm; for Antioxidant efficiency in β-carotene linoleic acid test: compared with water (control) and α-tocopherol
Method: The activity of the synthesized compounds was assessed via performing a modified assay of Gazzani and Miller[17]. The method was based on the coupled oxidation of β-carotene and linoleic acid emulsion. The bleaching mechanism of β-carotene is produced from the hydro-peroxides created from linoleic acid[18]. During the oxidation process, the characteristic orange color of β-carotene and the chromophore will be lost. The presence of antioxidants can hinder the extent of the β-carotene bleaching. Briefly, 1 mg of β-carotene was dissolved in 2 ml of chloroform, 20 mg of linoleic acid, and 200 mg of Tween 20. A rotary evaporator entirely vaporized chloroform at a temperature of less than 30 °C under reduced pressure. Then 200 ml of distilled water saturated with oxygen was added to the flask, which was shaken vigorously for 30 min. A sample (5 ml) of the prepared emulsion was transferred to a series of tubes containing 0.1 ml of the synthesized compounds or tocopherol (2 mg/ml).
The control sample was prepared in the same way but without added antioxidants. Each sample type was prepared in triplicate. The samples were inserted in a water bath at 50 °C for 2 h. The absorbance of the samples was measured using a spectrophotometer at a wavelength of 470 nm, immediately after the preparation of the samples, and at 15-min intervals until the end (t = 120 min) of the experiment.

O=C(OCCSc1ccccc1)c1ccccc1 [Compound 2a]
IC50 [1]: 418 µM
Antioxidant activity IC50, DPPH test [2]: 47.01 ± 1.07 µg/mL
α-Glycosidase enzyme IC50 (α-glucosidase): 10.09 ± 0.70 µg/mL
IC50 [3]: 13.8 µM
Absorbance in β-carotene linoleic acid test [4]: 1.04
Antioxidant efficiency in β-carotene linoleic acid test [4]: higher antioxidant efficiency

O=C(OCCSc1ccccc1)c1ccccc1O [Compound 2b]
α-Glycosidase enzyme IC50 (α-glucosidase): 89.95 ± 0.49 µg/mL
IC50 [3]: 45.3 µM
Absorbance in β-carotene linoleic acid test [4]: 0.84
Antioxidant efficiency in β-carotene linoleic acid test [4]: higher antioxidant efficiency

O=C(OCCSc1ccccc1)c1cccc(O)c1 [Compound 2c]
IC50 [1]: 1240 µM
α-Glycosidase enzyme IC50 (α-glucosidase): 78.1 ± 0.76 µg/mL
IC50 [3]: 71.3 µM

O=C(OCCSc1ccccc1)c1ccc(O)cc1 [Compound 2d]
IC50 [1]: 434 µM
α-Glycosidase enzyme IC50 (α-glucosidase): 114.17 ± 1.04 µg/mL
IC50 [3]: 48.9 µM

O=C(O)c1cc(O)c(O)c(O)c1 [Gallic acid, gallic acid]
Antioxidant activity IC50, DPPH test [2]: 31.72 ± 1.22 µg/mL

Cc1c(C)c2c(c(C)c1O)CC[C@@](C)(C(=O)O)O2 [Trolox, (S)-(–)-6 hydroxy-2,5,7,8-tetramethychroman-2-carboxylic acid]
Antioxidant activity IC50, DPPH test [2]: 4.28 ± 0.47 µg/mL
